Experimental data taken from patent US20190169181A1, “FUMAGILLOL COMPOUNDS AND METHODS OF MAKING AND USING SAME” (Zafgen, Inc., priority 2016, published 2019).
Structures can show the parent of a compound that is named as a salt.

Experiments:
[1] = system: Diet Induced Obese (DIO) C57BL/6 mice; assay: 10 day DIO mouse model, weight loss vs. vehicle; format: in vivo; settings: 240 h; for inhibition in vivo at 0.3 mg/kg: 0.3 mpk sc once a day for 10 days; for inhibition in vivo at 1 mg/kg: 1.0 mpk sc once a day for 10 days
Source text: The objective of this study design was to investigate the efficacy of disclosed compounds in a 10 day DIO mouse model. Effects on body weight, food intake, hematology and blood chemistry were the primary readouts of this study design. Male, Diet Induced Obese (DIO) C57BL/6 mice, 19-21 weeks of age (13-15 weeks on high fat diet) were ordered from a certified vendor and upon receipt were housed on irradiated corncob bedding in micro-isolator cages on a 12-hour light-dark cycle (0700-1900) at 68-74° F. and 30-70% humidity. Mice were fed Research Diets D12492 (60% Kcal fat, 20% Kcal carbohydrate and 20% protein) and provided water ad libitum. DIO mice were received and housed in the facility for approximately two weeks prior to the start of test article administration. On Day −4 or −3, mice were randomized into study groups based on body weight and body weights were continued to be recorded daily for the duration of the study. Daily food intake was assessed starting on Study Day −2 by weighing of the food with hopper together to avoid loss of food in transfer.
Compounds were formulated into a 100% DMSO stock (at 9 mg/mL) prior to the start, and further diluted into the target working concentration using the vehicle of 10% DMSO in water. Prior to test article administration, starting on Day −3 a dosing acclimation occurred with all animals receiving a subcutaneous injection of vehicle (10% DMSO) only for 3 days. Starting on Day 1, test compounds or vehicle were administered based on individual body weight, subcutaneously, once a day for 10 days. All mice were sacrificed on Day 11, 24 hours following the final dosing on Day 10. After sacrifice, whole blood was collected and analyzed for hematology and blood chemistry parameters.
Compounds were tested for weight loss vs. vehicle at 0.3 and 1.0 mpk sc (mg per kg animal weight delivered subcutaneously), and the results are shown in Table 2 below.

recombinant human MetAP2 = molecular target: T1, recombinant human MetAP2 (Homo sapiens, UniProt P50579); assay: Recombinant human MetAP2 enzyme inhibition assay (MAS peptide / amino acid oxidase / Amplex Ultrared readout); format: biochemical; settings: Flag tagged human recombinant MetAP2, 25 minutes at 25° C.
T1 construct: Flag; made in house
T1 sequence (P50579 whole entry): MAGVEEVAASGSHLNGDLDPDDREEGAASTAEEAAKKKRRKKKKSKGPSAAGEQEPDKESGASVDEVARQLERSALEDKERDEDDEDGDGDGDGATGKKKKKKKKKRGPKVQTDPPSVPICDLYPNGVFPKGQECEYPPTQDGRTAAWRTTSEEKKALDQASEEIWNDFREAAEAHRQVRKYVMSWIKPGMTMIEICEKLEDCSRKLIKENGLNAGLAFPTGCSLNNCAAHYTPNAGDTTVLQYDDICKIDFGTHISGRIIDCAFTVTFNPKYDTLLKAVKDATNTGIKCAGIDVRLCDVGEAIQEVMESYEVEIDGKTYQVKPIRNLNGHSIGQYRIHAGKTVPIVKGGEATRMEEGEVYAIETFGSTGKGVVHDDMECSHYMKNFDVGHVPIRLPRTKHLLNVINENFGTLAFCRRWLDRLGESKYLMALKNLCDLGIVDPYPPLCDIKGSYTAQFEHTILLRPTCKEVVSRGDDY
Method: Compounds are tested for their capacity to inhibit recombinant human MetAP2 activity using the following assay.
Flag tagged Human recombinant MetAP2 expressed and isolated for use as the enzyme source. 10 mM stock solutions of compounds were prepared in 100% DMSO and further diluted in 100% DMSO required concentration to 1 mM stocks. The stock compound solutions and DMSO vehicle controls were diluted to target final compound concentrations using assay buffer to a final concentration of 50 mM HEPES containing 100 mM NaCl, pH adjusted to 7.5. The MAS peptide was formulated to a 7.5 mM stock in distilled water and prior to use further diluted 1:4. […] 40 μl of enzyme was mixed with 100 μl of MnCl2 then further diluted in assay buffer to a final concentration of 16 μg/ml. To test for compound effect on MetAP2 enzyme activity, 5 μl of test compound, 10 μl of MAS substrate/amino acid oxidase mixture, 10 μl of MetAP2 was added to test wells in a 384 well black plate with blank wells containing no enzyme, replaced with 10 μl of assay buffer. All compounds were tested in duplicate on two occasions on the same day.
The plate was sealed with a TopSeal A cover and mixed briefly on an orbital mixer at 900 rpm. The plate was incubated for a further 25 minutes at 25° C. A 5× stock of Amplex buffer was prepared (0.25 M sodium phosphate, pH 7.4) and stored at 4° C. […] Horse radish peroxidase was diluted in […] of Amplex buffer, 100 μl of this was combined with 50 μl of Amplex Ultrared in […] of 1× Amplex buffer to generate sufficient detection reagent for a 384 well plate. 25 μl detection reagent was added to each well of the test plate, which was re-sealed and mixed briefly on an orbital shaker. The plate was transferred to an Envision Multi-label reader and RFU measured corresponding to excitation 531 nm and emission 595 nm. At the end of the MetAP2 incubation 25 μl Amplex/HRP mixture per well was added and the plate read plate on a plate reader.

Structure (SMILES) | IC50 (recombinant human MetAP2) [nM] | inhibition in vivo at 0.3 mg/kg [1] [%] | inhibition in vivo at 1 mg/kg [1] [%]
CO[C@@H]1[C@H](OC(=O)/C=C/c2ccc(OCCN(C)C)cc2)CC[C@]2(CO2)[C@H]1[C@@]1(C)O[C@@H]1CC=C(C)C [A, [(3R,6R,7S,8S)-7-methoxy-8-[(2R,3R)-2-methyl-3-(3-methylbut-2-enyl)oxiran-2-yl]-2-oxaspiro[2.5]octan-6-yl] (E)-3-[4-[2-(dimethylamino)ethoxy]phenyl]prop-2-enoate, reference compound] | – | 20 | 18
CO[C@@H]1[C@H](OC(=O)N[C@H](c2ncc[nH]2)C(C)C)CC[C@]2(CO2)[C@H]1[C@@]1(C)O[C@@H]1CC=C(C)C [Example 4, (3R,4S,5S,6R)-5-methoxy-4-((2R,3R)-2-methyl-3-(3-methylbut-2-enyl)oxiran-2-yl)-1-oxaspiro[2.5]octan-6-yl (S)-1-(1H-imidazol-2-yl)-2-methylpropylcarbamate] | < 50 | 3.9 | 0.7
CO[C@@H]1[C@H](OC(=O)N[C@H](c2nccn2C[C@H]2CCCN2C)C(C)C)CC[C@]2(CO2)[C@H]1[C@@]1(C)O[C@@H]1CC=C(C)C [Example 5, (3R,4S,5S,6R)-5-methoxy-4-((2R,3R)-2-methyl-3-(3-methylbut-2-enyl)oxiran-2-yl)-1-oxaspiro[2.5]octan-6-yl (S)-2-methyl-1-(1-(((R)-1-methylpyrrolidin-2-yl)methyl)-1H-imidazol-2-yl)propylcarbamate formate] | 50 to 500 | 3.1 | –
CO[C@@H]1[C@H](OC(=O)N[C@H](c2noc(=O)[nH]2)C(C)C)CC[C@]2(CO2)[C@H]1[C@@]1(C)O[C@@H]1CC=C(C)C [Example 10, (3R,4S,5S,6R)-5-methoxy-4-((2R,3R)-2-methyl-3-(3-methylbut-2-enyl)oxiran-2-yl)-1-oxaspiro[2.5]octan-6-yl (S)-2-methyl-1-(5-oxo-4,5-dihydro-1,2,4-oxadiazol-3-yl)propylcarbamate] | 50 to 500 | 4.1 | 2.9
CO[C@@H]1[C@H](OC(=O)N[C@H](c2cn(C[C@@H]3CCCN3C)cn2)C(C)C)CC[C@]2(CO2)[C@H]1[C@@]1(C)O[C@@H]1CC=C(C)C [Example 14, (3R,4S,5S,6R)-5-methoxy-4-((2R,3R)-2-methyl-3-(3-methylbut-2-enyl)oxiran-2-yl)-1-oxaspiro[2.5]octan-6-yl (S)-2-methyl-1-(1-(((S)-1-methylpyrrolidin-2-yl)methyl)-1H-imidazol-4-yl)propylcarbamate formate] | < 50 | 5.8 | 10.3
CO[C@@H]1[C@H](OC(=O)N[C@H](c2cn(CCN3CCOCC3)cn2)C(C)C)CC[C@]2(CO2)[C@H]1[C@@]1(C)O[C@@H]1CC=C(C)C [Example 17, (3R,4S,5S,6R)-5-methoxy-4-((2R,3R)-2-methyl-3-(3-methylbut-2-enyl)oxiran-2-yl)-1-oxaspiro[2.5]octan-6-yl (S)-2-methyl-1-(1-(2-morpholinoethyl)-1H-imidazol-4-yl)propylcarbamate] | 50 to 500 | 3.2 | –
CO[C@@H]1[C@H](OC(=O)N[C@H](c2cn(C[C@H]3CCN(CC(F)F)C3)cn2)C(C)C)CC[C@]2(CO2)[C@H]1[C@@]1(C)O[C@@H]1CC=C(C)C [Example 18, (3R,4S,5S,6R)-5-methoxy-4-((2R,3R)-2-methyl-3-(3-methylbut-2-enyl)oxiran-2-yl)-1-oxaspiro[2.5]octan-6-yl (S)-1-(1-(((S)-1-(2,2-difluoroethyl)pyrrolidin-3-yl)methyl)-1H-imidazol-4-yl)-2-methylpropylcarbamate] | 50 to 500 | -0.4 | –
CO[C@@H]1[C@H](OC(=O)N[C@H](c2cn(C[C@@H]3CCN(CC(F)F)C3)cn2)C(C)C)CC[C@]2(CO2)[C@H]1[C@@]1(C)O[C@@H]1CC=C(C)C [Example 19, (3R,4S,5S,6R)-5-methoxy-4-((2R,3R)-2-methyl-3-(3-methylbut-2-enyl)oxiran-2-yl)-1-oxaspiro[2.5]octan-6-yl (S)-1-(1-(((R)-1-(2,2-difluoroethyl)pyrrolidin-3-yl)methyl)-1H-imidazol-4-yl)-2-methylpropylcarbamate] | 50 to 500 | 1.9 | –

Second part, led by results:

IC50 (recombinant human MetAP2) [nM] | Structure (SMILES) | inhibition in vivo at 0.3 mg/kg [1] [%] | inhibition in vivo at 1 mg/kg [1] [%]
< 50 | CO[C@@H]1[C@H](OC(=O)N[C@H](c2nnc(N)o2)C(C)C)CC[C@]2(CO2)[C@H]1[C@@]1(C)O[C@@H]1CC=C(C)C [Example 1, (3R,4S,5S,6R)-5-methoxy-4-((2R,3R)-2-methyl-3-(3-methylbut-2-enyl)oxiran-2-yl)-1-oxaspiro[2.5]octan-6-yl (S)-1-(5-amino-1,3,4-oxadiazol-2-yl)-2-methylpropylcarbamate] | 2.6 | 2.1
50 to 500 | CNc1nnc([C@H](NC(=O)O[C@@H]2CC[C@]3(CO3)[C@@H]([C@@]3(C)O[C@@H]3CC=C(C)C)[C@@H]2OC)C(C)C)o1 [Example 3, (3R,5S,6R)-5-methoxy-4-((2R,3R)-2-methyl-3-(3-methylbut-2-enyl)oxiran-2-yl)-1-oxaspiro[2.5]octan-6-yl (R)-2-methyl-1-(5-(methylamino)-1,3,4-oxadiazol-2-yl)propylcarbamate] | 1.1 | –
< 50 | CNc1nnc([C@H](NC(=O)O[C@@H]2CC[C@]3(CO3)[C@@H]([C@@]3(C)O[C@@H]3CC=C(C)C)[C@@H]2OC)C(C)C)s1 [Example 7, (3R,4S,5S,6R)-5-methoxy-4-((2R,3R)-2-methyl-3-(3-methylbut-2-enyl)oxiran-2-yl)-1-oxaspiro[2.5]octan-6-yl (R)-2-methyl-1-(5-(methylamino)-1,3,4-thiadiazol-2-yl)propylcarbamate] | 1.8 | –
50 to 500 | CNc1nnc([C@@H](NC(=O)O[C@@H]2CC[C@]3(CO3)[C@@H]([C@@]3(C)O[C@@H]3CC=C(C)C)[C@@H]2OC)C(C)C)s1 [Example 8, (3R,4S,5S,6R)-5-methoxy-4-((2R,3R)-2-methyl-3-(3-methylbut-2-enyl)oxiran-2-yl)-1-oxaspiro[2.5]octan-6-yl (S)-2-methyl-1-(5-(methylamino)-1,3,4-thiadiazol-2-yl)propylcarbamate] | 2 | –
< 50 | CO[C@@H]1[C@H](OC(=O)N[C@H](c2nnc[nH]2)C(C)C)CC[C@]2(CO2)[C@H]1[C@@]1(C)O[C@@H]1CC=C(C)C [Example 9, (3R,4S,5S,6R)-5-methoxy-4-((2R,3R)-2-methyl-3-(3-methylbut-2-enyl)oxiran-2-yl)-1-oxaspiro[2.5]octan-6-yl (S)-2-methyl-1-(4H-1,2,4-triazol-3-yl)propylcarbamate] | 2.1 | –
50 to 500 | CO[C@@H]1[C@H](OC(=O)N[C@@H](c2noc(=O)[nH]2)C(C)C)CC[C@]2(CO2)[C@H]1[C@@]1(C)O[C@@H]1CC=C(C)C [Example 11, (3R,4S,5S,6R)-5-methoxy-4-((2R,3R)-2-methyl-3-(3-methylbut-2-enyl)oxiran-2-yl)-1-oxaspiro[2.5]octan-6-yl (R)-2-methyl-1-(5-oxo-4,5-dihydro-1,2,4-oxadiazol-3-yl)propylcarbamate] | -1.3 | 6.6
< 50 | CO[C@@H]1[C@H](OC(=O)N[C@H](c2c[nH]nn2)C(C)C)CC[C@]2(CO2)[C@H]1[C@@]1(C)O[C@@H]1CC=C(C)C [Example 21, (3R,4S,5S,6R)-5-methoxy-4-((2R,3R)-2-methyl-3-(3-methylbut-2-enyl)oxiran-2-yl)-1-oxaspiro[2.5]octan-6-yl (S)-2-methyl-1-(1H-1,2,3-triazol-4-yl)propylcarbamate] | – | –
